From patent US10954221B2, “GLP-1R agonists and uses thereof” (QILU REGOR THERAPEUTICS INC., priority 2019, dated 2021) come the findings set out here.

Where only a bound is given, the exact number is not on record here.

In one test the target is T1, GLP1R (Homo sapiens, UniProt P43220). In words: GLP1R cAMP assay (HTRF), HEK293/GLP-1R/CRE/Luc, Clone 4.
Conditions: not given
Target sequence in this assay (P43220 24-463): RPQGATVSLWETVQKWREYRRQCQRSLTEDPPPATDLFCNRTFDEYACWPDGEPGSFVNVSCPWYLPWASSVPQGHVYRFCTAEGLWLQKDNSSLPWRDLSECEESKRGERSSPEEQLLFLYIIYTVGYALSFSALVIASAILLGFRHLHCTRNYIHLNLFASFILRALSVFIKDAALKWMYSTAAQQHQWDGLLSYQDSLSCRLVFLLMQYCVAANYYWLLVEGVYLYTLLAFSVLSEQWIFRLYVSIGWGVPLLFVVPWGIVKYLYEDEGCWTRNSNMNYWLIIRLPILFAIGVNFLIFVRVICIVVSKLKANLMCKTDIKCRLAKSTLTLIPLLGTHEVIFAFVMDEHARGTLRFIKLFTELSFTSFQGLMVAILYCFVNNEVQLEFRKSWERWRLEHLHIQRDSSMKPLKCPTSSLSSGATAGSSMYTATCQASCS
In turn, `O=C(O)c1ccc2nc(Cc3ccc(-c4cccc(OCc5ccc(Cl)cc5F)n4)c(F)c3)n(C[C@@H]3CCO3)c2n1` [Compound 102, (S)-2-(4-(6-((4-chloro-2-fluorobenzyl)oxy)pyridin-2-yl)-3-fluorobenzyl)-3-(oxetan-2-ylmethyl)-3H-imidazo[4,5-b]pyridine-5-carboxylic acid] yielded an EC50 of less than 15 nM.
Still for that read-out and setting: under `O=C(O)c1ccc2nc(Cc3cc(F)c(-c4cccc(OCc5ccc(Cl)cc5F)n4)cc3F)n(C[C@@H]3CCO3)c2c1` [Compound 257, (S)-2-(4-(6-((4-chloro-2-fluorobenzyl)oxy)pyridin-2-yl)-2,5-difluorobenzyl)-1-(oxetan-2-ylmethyl)-1H-benzo[d]imidazole-6-carboxylic acid] stands less than 15 nM.
On the same count and under the same terms, under `N#Cc1ccc(COc2cccc(-c3cc(F)c(Cc4nc5ccc(C(=O)O)cc5n4C[C@@H]4CCO4)cc3F)n2)c(F)c1` [Compound 271, (S)-2-(4-(6-((4-cyano-2-fluorobenzyl)oxy)pyridin-2-yl)-2,5-difluorobenzyl)-1-(oxetan-2-ylmethyl)-1H-benzo[d]imidazole-6-carboxylic acid] stands less than 15 nM; under `Cc1cc(-c2cccc(OCc3ccc(Cl)cc3F)n2)ccc1Cc1nc2ccc(C(=O)O)cc2n1C[C@@H]1CCO1` [Compound 295, (S)-2-(4-(6-((4-chloro-2-fluorobenzyl)oxy)pyridin-2-yl)-2-methylbenzyl)-1-(oxetan-2-ylmethyl)-1H-benzo[d]imidazole-6-carboxylic acid], less than 15 nM.
On the same count and under the same terms, the figure for `O=C(O)c1ccc2nc(Cc3cc(F)c(-c4cccc(OCc5ncc(F)cc5F)n4)cc3F)n(C[C@@H]3CCO3)c2n1` [Compound 297, (S)-2-(4-(6-((3,5-difluoropyridin-2-yl)methoxy)pyridin-2-yl)-2,5-difluorobenzyl)-3-(oxetan-2-ylmethyl)-3H-imidazo[4,5-b]pyridine-5-carboxylic acid] is less than 15 nM.
`O=C(O)c1ccc2nc(Cc3ccc(-c4nc(OCc5ccc(Cl)cc5F)c(F)cc4F)cc3F)n(C[C@@H]3CCO3)c2n1` [Compound 299, (S)-2-(4-(6-(4-chloro-2-fluorobenzyloxy)-3,5-difluoropyridin-2-yl)-2-fluorobenzyl)-3-(oxetan-2-ylmethyl)-3H-imidazo [4,5-b]pyridine-S-carboxylic acid] registered an EC50 of less than 15 nM.
Still for that read-out and setting: the figure for `N#Cc1cnc(COc2nc(-c3ccc(Cc4nc5ccc(C(=O)O)nc5n4C[C@@H]4CCO4)cc3F)ncc2F)c(F)c1` [Compound 302, (S)-2-(4-(4-((5-cyano-3-fluoropyridin-2-yl)methoxy)-5-fluoropyrimidin-2-yl)-3-fluorobenzyl)-3-(oxetan-2-ylmethyl)-3H-imidazo[4,5-b]pyridine-5-carboxylic acid] is 15 to 150 nM; for `O=C(O)c1ccc2nc(Cc3ccc(-c4cccc(OCc5ccc(-n6ccnc6)cc5)n4)cc3F)n(C[C@@H]3CCO3)c2n1` [Compound 304, (S)-2-(4-(6-((4-(1H-imidazol-1-yl)benzyl)oxy)pyridin-2-yl)-2-fluorobenzyl)-3-(oxetan-2-ylmethyl)-3H-imidazo[4,5-b]pyridine-5-carboxylic acid] it is less than 15 nM; for `O=C(O)c1ccc2nc(Cc3ccc(-c4nc(OCc5ccc(Cl)cc5F)c(F)cc4F)c(F)c3)n(C[C@@H]3CCO3)c2n1` [Compound 306, (S)-2-(4-(6-((4-chloro-2-fluorobenzyl)oxy)-3,5-difluoropyridin-2-yl)-3-fluorobenzyl)-3-(oxetan-2-ylmethyl)-3H-imidazo[4,5-b]pyridine-5-carboxylic acid] it is less than 15 nM.
Same read-out and setting: under `O=C(O)c1ccc2nc(Cc3ccc(-c4cccc(OCc5ccc(Cl)cc5F)n4)cc3F)n(C[C@@H]3CCO3)c2c1F` [Compound 309, (S)-2-(4-(6-((4-chloro-2-fluorobenzyl)oxy)pyridin-2-yl)-2-fluorobenzyl)-7-fluoro-1-(oxetan-2-ylmethyl)-1H-benzo[d]imidazole-6-carboxylic acid] stands less than 15 nM; under `N#Cc1ccc(COc2nc(-c3cc(F)c(Cc4nc5ccc(C(=O)O)c(F)c5n4C[C@@H]4CCO4)cc3F)ncc2F)nc1` [Compound 313, (S)-2-(4-(4-((5-cyanopyridin-2-yl)methoxy)-5-fluoropyrimidin-2-yl)-2,5-difluorobenzyl)-7-fluoro-1-(oxetan-2-ylmethyl)-1H-benzo[d]imidazole-6-carboxylic acid], less than 15 nM; under `N#Cc1ccc(COc2cccc(N3CCC(=Cc4nc5ccc(C(=O)O)nc5n4C[C@@H]4CCO4)CC3)n2)c(F)c1` [Compound 314, (S)-2-((1-(6-(4-cyano-2-fluorobenzyloxy)pyridin-2-yl)piperidin-4-ylidene)methyl)-3-(oxetan-2-ylmethyl)-3H-imidazo [4,5-b] pyridine-S-carboxylic acid], 15 to 150 nM.
Same read-out and setting: under `O=C(O)c1ccc2nc(C=C3CCN(c4cccc(OCc5ccc(F)cc5F)n4)CC3)n(C[C@@H]3CCO3)c2n1` [Compound 315, (S)-2-((1-(6-(2,4-difluorobenzyloxy)pyridin-2-yl)piperidin-4-ylidene)methyl)-3-(oxetan-2-ylmethyl)-3H-imidazo[4,5-b]pyridine-5-carboxylic acid] stands 150 to 1000 nM; under `N#Cc1ccc(COc2cccc(N3CCC(=Cc4nc5ccc(C(=O)O)nc5n4C[C@@H]4CCO4)CC3)n2)nc1` [Compound 316, (S)-2-((1-(6-((5-cyanopyridin-2-yl)methoxy)pyridin-2-yl)piperidin-4-ylidene)methyl)-3-(oxetan-2-ylmethyl)-3H-imidazo[4,5-b]pyridine-5-carboxylic acid], 15 to 150 nM.
As to `N#Cc1ccc(COc2cccc(N3CCC(=Cc4nc5ccc(C(=O)O)cc5n4C[C@@H]4CCO4)CC3)n2)c(F)c1` [Compound 317, (S)-2-((1-(6-((4-cyano-2-fluorobenzyl)oxy)pyridin-2-yl)piperidin-4-ylidene)methyl)-1-(oxetan-2-ylmethyl)-1H-benzo[d]imidazole-6-carboxylic acid], the EC50 is less than 15 nM.
Same read-out and setting: the figure for `N#Cc1ccc(COc2cccc(N3CCC(=Cc4nc5ccc(C(=O)O)c(F)c5n4C[C@@H]4CCO4)CC3)n2)nc1` [Compound 318, (S)-2-((1-(6-((5-cyanopyridin-2-yl)methoxy)pyridin-2-yl)piperidin-4-ylidene)methyl)-7-fluoro-1-(oxetan-2-ylmethyl)-1H-benzo[d]imidazole-6-carboxylic acid] is 15 to 150 nM.
On the same count and under the same terms, under `O=C(O)c1ccc2nc(CC3CCC(c4cccc(OCc5ccc(Cl)cc5F)n4)CC3)n(C[C@@H]3CCO3)c2c1` (stereo partly drawn) [Compound 319, (S)-2-((4-(6-((4-chloro-2-fluorobenzyl)oxy)pyridin-2-yl)cyclohexyl)methyl)-1-(oxetan-2-ylmethyl)-1H-benzo[d]imidazole-6-carboxylic acid] stands 15 to 150 nM; under `N#Cc1ccc(COc2cccc(-c3ccc(Nc4nc5ccc(C(=O)O)cc5n4C[C@@H]4CCO4)c(F)c3)n2)c(F)c1` [Compound 320, (S)-2-((4-(6-((4-cyano-2-fluorobenzyl)oxy)pyridin-2-yl)-2-fluorophenyl)amino)-1-(oxetan-2-ylmethyl)-1H-benzo[d]imidazole-6-carboxylic acid], 15 to 150 nM; under `N#Cc1ccc(COc2cccc(-c3ccn(Cc4nc5ccc(C(=O)O)nc5n4C[C@@H]4CCO4)c(=O)c3)n2)c(F)c1` [Compound 324, (S)-2-((6-((4-cyano-2-fluorobenzyl)oxy)-2′-oxo-[2,4′-bipyridin]-1′(2′H)-yl)methyl)-3-(oxetan-2-ylmethyl)-3H-imidazo[4,5-b]pyridine-5-carboxylic acid], 15 to 150 nM.
Still for that read-out and setting: the figure for `N#Cc1ccc(COc2nc(-c3ccn(Cc4nc5ccc(C(=O)O)nc5n4C[C@@H]4CCO4)c(=O)c3)ncc2F)c(F)c1` [Compound 325, (S)-2-((4-(4-((4-cyano-2-fluorobenzyl)oxy)-5-fluoropyrimidin-2-yl)-2-oxopyridin-1(2H)-yl)methyl)-3-(oxetan-2-ylmethyl)-3H-imidazo[4,5-b]pyridine-5-carboxylic acid] is 15 to 150 nM.
Consider `O=C(O)c1ccc2nc(CN3CC=C(c4cccc(OCc5ccc(Cl)cc5F)n4)CC3)c(Cc3cocn3)n2c1` [Compound 327, 2-((6-((4-chloro-2-fluorobenzyl)oxy)-3′,6′-dihydro-[2,4′-bipyridin]-1′(2′H)-yl)methyl)-3-(oxazol-4-ylmethyl)imidazo[1,2-a]pyridine-6-carboxylic acid], for which the EC50 was 15 to 150 nM.
Compound `N#Cc1ccc(COc2cccc(C3=CCN(Cc4nc5ccc(B(O)O)cc5n4C[C@@H]4CCO4)CC3)n2)c(F)c1` [Compound 328, (S)-(2-((6-((4-cyano-2-fluorobenzyl)oxy)-3′,6′-dihydro-[2,4′-bipyridin]-1′(2′H)-yl)methyl)-1-(oxetan-2-ylmethyl)-1H-benzo[d]imidazol-6-yl)boronic acid] registered an EC50 of 15 to 150 nM.
The same measure, in the same setting: under `O=C(O)c1ccc2nc(CN3CC=C(c4cccnc4OCc4ccc(Cl)cc4F)CC3)n(C[C@@H]3CCO3)c2c1` [Compound 329, (S)-2-((2-((4-chloro-2-fluorobenzyl)oxy)-3′,6′-dihydro-[3,4′-bipyridin]-1′(2′H)-yl)methyl)-1-(oxetan-2-ylmethyl)-1H-benzo[d]imidazole-6-carboxylic acid] stands 15 to 150 nM; under `CC1(c2ccc(Cl)cc2F)Oc2cccc(C3=CCN(Cc4nc5ccc(C(=O)O)cc5n4C[C@@H]4CCO4)CC3)c2O1` (stereo partly drawn) [Compound 330, 2-((4-(2-(4-chloro-2-fluorophenyl)-2-methylbenzo[d][1,3]dioxol-4-yl)-5,6-dihydropyridin-1(2H)-yl)methyl)-1-((S)-oxetan-2-ylmethyl)-1H-benzo[d]imidazole-6-carboxylic acid], less than 15 nM.

The next test has as its target T1, GLP1R.
Assay: not given
More on the design: Emax: dose or concentration left out as unconfirmed. The following applies: CHO-K1, […], read-out: β-arrestin recruitment Bmax (%).
Target sequence in this assay (P43220 24-463): as above
Target sequence in this assay (P32121 whole entry partner): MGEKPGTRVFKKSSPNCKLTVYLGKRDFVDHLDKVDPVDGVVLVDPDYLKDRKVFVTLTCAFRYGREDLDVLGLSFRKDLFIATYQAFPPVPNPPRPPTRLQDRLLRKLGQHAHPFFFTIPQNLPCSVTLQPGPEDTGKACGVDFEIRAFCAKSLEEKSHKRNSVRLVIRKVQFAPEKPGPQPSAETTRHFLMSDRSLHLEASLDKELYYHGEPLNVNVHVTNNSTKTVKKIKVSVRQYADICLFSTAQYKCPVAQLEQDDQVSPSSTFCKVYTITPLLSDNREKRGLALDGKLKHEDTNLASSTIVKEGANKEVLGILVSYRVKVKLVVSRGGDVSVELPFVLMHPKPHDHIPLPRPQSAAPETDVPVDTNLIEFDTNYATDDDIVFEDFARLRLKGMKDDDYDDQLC
With `O=C(O)c1ccc2nc(Cc3ccc(-c4cccc(OCc5ccc(Cl)cc5F)n4)c(F)c3)n(C[C@@H]3CCO3)c2n1` [Compound 102, (S)-2-(4-(6-((4-chloro-2-fluorobenzyl)oxy)pyridin-2-yl)-3-fluorobenzyl)-3-(oxetan-2-ylmethyl)-3H-imidazo[4,5-b]pyridine-5-carboxylic acid], the Emax is 28.3%.
The same measure, in the same setting: under `O=C(O)c1ccc2nc(Cc3cc(F)c(-c4cccc(OCc5ccc(Cl)cc5F)n4)cc3F)n(C[C@@H]3CCO3)c2c1` [Compound 257, (S)-2-(4-(6-((4-chloro-2-fluorobenzyl)oxy)pyridin-2-yl)-2,5-difluorobenzyl)-1-(oxetan-2-ylmethyl)-1H-benzo[d]imidazole-6-carboxylic acid] stands 31.4%.
Take `N#Cc1ccc(COc2cccc(-c3cc(F)c(Cc4nc5ccc(C(=O)O)cc5n4C[C@@H]4CCO4)cc3F)n2)c(F)c1` [Compound 271, (S)-2-(4-(6-((4-cyano-2-fluorobenzyl)oxy)pyridin-2-yl)-2,5-difluorobenzyl)-1-(oxetan-2-ylmethyl)-1H-benzo[d]imidazole-6-carboxylic acid]: the Emax was 28.5%.
